From the NIST ThermoML archive (doi:10.1021/je800110r)

Settings: Liquid, Vibrating tube method

CCCCCCCCCC [decane]
Settings	mass density [kg/m3]
333.14 K, 31467 kPa	725.7
333.14 K, 31504 kPa	725.7
333.14 K, 31531 kPa	725.6
333.14 K, 31564 kPa	725.8
333.14 K, 31694 kPa	725.9
333.14 K, 31764 kPa	725.9
333.14 K, 32193 kPa	726
333.14 K, 32227 kPa	726.1
333.14 K, 32261 kPa	726.2
333.14 K, 32305 kPa	726.2
333.14 K, 32335 kPa	726.3
333.14 K, 32366 kPa	726.3
333.14 K, 32401 kPa	726.4
333.14 K, 32435 kPa	726.3
333.15 K, 358 kPa	699.5
333.15 K, 377 kPa	699.6
333.15 K, 404 kPa	699.5
333.15 K, 423 kPa	699.6
333.15 K, 440 kPa	699.5
333.15 K, 465 kPa	699.6
333.15 K, 501 kPa	699.6
333.15 K, 536 kPa	699.7
333.15 K, 563 kPa	699.6
333.15 K, 600 kPa	699.7
333.15 K, 627 kPa	699.8
333.15 K, 645 kPa	699.8
333.15 K, 672 kPa	699.8
333.15 K, 696 kPa	699.8
333.15 K, 727 kPa	699.7
333.15 K, 765 kPa	699.9
333.15 K, 1005 kPa	700.1
333.15 K, 1052 kPa	700.2
333.15 K, 1108 kPa	700.3
333.15 K, 1167 kPa	700.2
333.15 K, 1210 kPa	700.4
333.15 K, 1236 kPa	700.4
333.15 K, 1263 kPa	700.3
333.15 K, 1284 kPa	700.3
333.15 K, 1315 kPa	700.4
333.15 K, 1341 kPa	700.4
333.15 K, 1363 kPa	700.5
333.15 K, 1393 kPa	700.4
333.15 K, 1421 kPa	700.6
333.15 K, 1449 kPa	700.6
333.15 K, 1481 kPa	700.6
333.15 K, 1519 kPa	700.7
333.15 K, 1544 kPa	700.7
333.15 K, 1588 kPa	700.7
333.15 K, 1620 kPa	700.7
333.15 K, 1662 kPa	700.7
333.15 K, 1706 kPa	700.8
333.15 K, 1751 kPa	701
333.15 K, 1782 kPa	700.9
333.15 K, 1825 kPa	700.9
333.15 K, 1879 kPa	701
333.15 K, 1924 kPa	701
333.15 K, 1954 kPa	701
333.15 K, 2001 kPa	701.1
333.15 K, 2049 kPa	701.1
333.15 K, 2081 kPa	701.2
333.15 K, 2130 kPa	701.3
333.15 K, 2176 kPa	701.4
333.15 K, 2223 kPa	701.4
333.15 K, 2280 kPa	701.4
333.15 K, 2332 kPa	701.3
333.15 K, 2406 kPa	701.5
333.15 K, 2460 kPa	701.6
333.15 K, 2497 kPa	701.6
333.15 K, 2529 kPa	701.6
333.15 K, 2556 kPa	701.6
333.15 K, 2594 kPa	701.7
333.15 K, 2623 kPa	701.7
333.15 K, 2666 kPa	701.7
333.15 K, 2701 kPa	701.7
333.15 K, 2737 kPa	701.7
333.15 K, 2769 kPa	701.8
333.15 K, 2837 kPa	701.9
333.15 K, 3106 kPa	702.2
333.15 K, 3141 kPa	702.3
333.15 K, 3150 kPa	702.3
333.15 K, 3174 kPa	702.3
333.15 K, 3195 kPa	702.3
333.15 K, 3232 kPa	702.3
333.15 K, 3264 kPa	702.3
333.15 K, 3283 kPa	702.4
333.15 K, 3311 kPa	702.4
333.15 K, 3335 kPa	702.4
333.15 K, 3368 kPa	702.4
333.15 K, 3387 kPa	702.5
333.15 K, 3414 kPa	702.4
333.15 K, 3444 kPa	702.5
333.15 K, 3468 kPa	702.5
333.15 K, 3500 kPa	702.6
333.15 K, 3528 kPa	702.6
333.15 K, 3556 kPa	702.7
333.15 K, 3593 kPa	702.6
333.15 K, 3622 kPa	702.7
333.15 K, 3651 kPa	702.7
333.15 K, 3678 kPa	702.8
333.15 K, 3717 kPa	702.7
333.15 K, 3736 kPa	702.8
333.15 K, 3769 kPa	702.8
333.15 K, 3790 kPa	702.8
333.15 K, 3823 kPa	702.8
333.15 K, 3870 kPa	703
333.15 K, 3903 kPa	703
333.15 K, 3934 kPa	703
333.15 K, 3970 kPa	703
333.15 K, 3998 kPa	703.2
333.15 K, 4018 kPa	703.1
333.15 K, 4043 kPa	703.1
333.15 K, 4068 kPa	703.1
333.15 K, 4097 kPa	703.1
333.15 K, 4127 kPa	703.1
333.15 K, 4159 kPa	703.3
333.15 K, 4185 kPa	703.1
333.15 K, 4204 kPa	703.1
333.15 K, 4227 kPa	703.2
333.15 K, 4258 kPa	703.3
333.15 K, 4277 kPa	703.4
333.15 K, 4305 kPa	703.4
333.15 K, 4337 kPa	703.5
333.15 K, 4365 kPa	703.4
333.15 K, 4394 kPa	703.5
333.15 K, 4422 kPa	703.5
333.15 K, 4448 kPa	703.5
333.15 K, 4474 kPa	703.6
333.15 K, 4505 kPa	703.5
333.15 K, 4527 kPa	703.6
333.15 K, 4547 kPa	703.5
333.15 K, 4580 kPa	703.6
333.15 K, 4599 kPa	703.6
333.15 K, 4631 kPa	703.7
333.15 K, 4657 kPa	703.7
333.15 K, 4686 kPa	703.7
333.15 K, 4710 kPa	703.6
333.15 K, 4738 kPa	703.8
333.15 K, 4760 kPa	703.6
333.15 K, 4781 kPa	703.9
333.15 K, 4846 kPa	703.9
333.15 K, 4874 kPa	704
333.15 K, 4903 kPa	703.9
333.15 K, 4957 kPa	704.1
333.15 K, 4981 kPa	704.1
333.15 K, 5033 kPa	704.1
333.15 K, 5058 kPa	704
333.15 K, 5078 kPa	704.2
333.15 K, 5105 kPa	704.2
333.15 K, 5125 kPa	704.1
333.15 K, 5153 kPa	704.1
333.15 K, 5182 kPa	704.1
333.15 K, 5207 kPa	704.3
333.15 K, 5223 kPa	704.3
333.15 K, 5253 kPa	704.2
333.15 K, 5272 kPa	704.3
333.15 K, 5288 kPa	704.2
333.15 K, 5306 kPa	704.4
333.15 K, 5324 kPa	704.3
333.15 K, 5342 kPa	704.4
333.15 K, 5361 kPa	704.3
333.15 K, 5380 kPa	704.3
333.15 K, 5399 kPa	704.4
333.15 K, 5413 kPa	704.4
333.15 K, 5434 kPa	704.4
333.15 K, 5450 kPa	704.5
333.15 K, 5470 kPa	704.5
333.15 K, 5498 kPa	704.5
333.15 K, 5514 kPa	704.6
333.15 K, 5530 kPa	704.6
333.15 K, 5548 kPa	704.5
333.15 K, 5567 kPa	704.7
333.15 K, 5637 kPa	704.6
333.15 K, 5652 kPa	704.6
333.15 K, 5669 kPa	704.7
333.15 K, 5690 kPa	704.7
333.15 K, 5721 kPa	704.7
333.15 K, 5735 kPa	704.7
333.15 K, 6140 kPa	705.1
333.15 K, 6164 kPa	705
333.15 K, 6191 kPa	705.1
333.15 K, 6212 kPa	705.1
333.15 K, 6234 kPa	705.2
333.15 K, 6252 kPa	705.2
333.15 K, 6280 kPa	705.2
333.15 K, 6299 kPa	705.2
333.15 K, 6323 kPa	705.2
333.15 K, 6345 kPa	705.3
333.15 K, 6367 kPa	705.3
333.15 K, 6389 kPa	705.2
333.15 K, 6418 kPa	705.4
333.15 K, 6437 kPa	705.3
333.15 K, 6464 kPa	705.3
333.15 K, 6483 kPa	705.4
333.15 K, 6513 kPa	705.5
333.15 K, 6533 kPa	705.4
333.15 K, 6560 kPa	705.5
333.15 K, 6595 kPa	705.5
333.15 K, 6622 kPa	705.6
333.15 K, 6882 kPa	705.7
333.15 K, 6909 kPa	705.8
333.15 K, 6935 kPa	705.8
333.15 K, 6958 kPa	706
333.15 K, 6985 kPa	705.9
333.15 K, 7028 kPa	705.9
333.15 K, 7059 kPa	706
333.15 K, 7087 kPa	706
333.15 K, 7110 kPa	706
333.15 K, 7135 kPa	705.9
333.15 K, 7164 kPa	706
333.15 K, 7188 kPa	706
333.15 K, 7209 kPa	706.1
333.15 K, 7243 kPa	706
333.15 K, 7268 kPa	706.2
333.15 K, 7306 kPa	706.1
333.15 K, 7344 kPa	706.2
333.15 K, 8096 kPa	706.9
333.15 K, 8122 kPa	706.9
333.15 K, 8147 kPa	707
333.15 K, 8166 kPa	707
333.15 K, 8186 kPa	707
333.15 K, 8211 kPa	707
333.15 K, 8236 kPa	707
333.15 K, 8262 kPa	707
333.15 K, 8292 kPa	707
333.15 K, 8315 kPa	707
333.15 K, 8335 kPa	707
333.15 K, 8358 kPa	707
333.15 K, 8381 kPa	707.2
333.15 K, 8505 kPa	707.3
333.15 K, 8536 kPa	707.2
333.15 K, 8561 kPa	707.4
333.15 K, 8613 kPa	707.4
333.15 K, 8638 kPa	707.3
333.15 K, 8740 kPa	707.4
333.15 K, 8795 kPa	707.5
333.15 K, 8818 kPa	707.7
333.15 K, 8851 kPa	707.6
333.15 K, 8872 kPa	707.6
333.15 K, 8900 kPa	707.6
333.15 K, 8924 kPa	707.6
333.15 K, 9353 kPa	708
333.15 K, 9380 kPa	708.2
333.15 K, 9411 kPa	708.1
333.15 K, 9435 kPa	708.2
333.15 K, 9465 kPa	708.1
333.15 K, 9493 kPa	708.1
333.15 K, 9570 kPa	708.3
333.15 K, 9598 kPa	708.2
333.15 K, 9623 kPa	708.2
333.15 K, 9648 kPa	708.3
333.15 K, 9680 kPa	708.2
333.15 K, 9709 kPa	708.3
333.15 K, 9849 kPa	708.4
333.15 K, 9874 kPa	708.5
333.15 K, 9908 kPa	708.6
333.15 K, 9931 kPa	708.6
333.15 K, 9958 kPa	708.6
333.15 K, 9981 kPa	708.6
333.15 K, 10004 kPa	708.6
333.15 K, 10023 kPa	708.6
333.15 K, 10054 kPa	708.6
333.15 K, 10081 kPa	708.7
333.15 K, 10109 kPa	708.7
333.15 K, 10145 kPa	708.8
333.15 K, 10175 kPa	708.9
333.15 K, 10207 kPa	708.8
333.15 K, 10231 kPa	708.8
333.15 K, 10260 kPa	708.8
333.15 K, 10298 kPa	708.9
333.15 K, 10331 kPa	708.7
333.15 K, 10354 kPa	708.9
333.15 K, 10384 kPa	709
333.15 K, 10403 kPa	708.9
